Laboratory results from paper PMC13288994, “Identification and characterization of novel chikungunya virus polymerase inhibitors” (Journal of Virology, 2026).
Read-outs that look alike come from different tables or passages of the source.

What was measured:
[1] = target: EEEV trans-replicase (P1234) (Eastern equine encephalitis virus, UniProt Q306W6); assay type: cell-based
[2] = target: WEEV trans-replicase (P1234) (Western equine encephalitis virus, UniProt P13896); assay type: cell-based
SINV = assay: microbe, parasite or virus in culture; assay type: cell-based, Sindbis virus; conditions: read-out: EC50 virus production, SINV
[3] = target: T1, SFV trans-replicase (P1234) (Semliki forest virus, UniProt P08411); assay: Trans-replicase assay, SFV; assay type: cell-based; conditions: 100 µM, U-2 OS, 20 h
T1 construct: expression of the P1234 polyprotein drives replication of a reporter RNA template; expressed in transfected cells; host or cells: U-2 OS
Method: (§1) U-2 OS cells were seeded at 75,000 cells per well in 24-well plates and cultured for 24 h. Cells were then co-transfected with 250 ng of plasmid encoding template RNA and 250 ng of plasmid encoding P1234 WT ([72], [73]), using Lipofectamine LTX with PLUS reagent (ThermoFisher Scientific) following the manufacturer’s instructions. After 4 h of post-transfection, medium containing 100 µM of compounds or DMSO was added to the cells. Cells were then incubated for 20 h, lysed, and GLuc activity was quantified using the Dual-Luciferase Reporter Assay System (Promega). Luciferase activities were normalized to those of the DMSO-treated controls.

[4] = target: T2, RRV trans-replicase (P1234) (Ross river virus, UniProt P13887); assay: Trans-replicase assay, RRV; assay type: cell-based; conditions: 100 µM, U-2 OS, 20 h
T2 construct: expression of the P1234 polyprotein drives replication of a reporter RNA template; expressed in transfected cells; host or cells: U-2 OS
Method: as §1

NHDF cells = assay: Cytotoxicity assay (PrestoBlue, 24 h) in NHDF cells; assay type: cell-based, Human
Method: NHDF cells were seeded at 10,000 cells per well in 24-well plates and cultured for 24 h. Cells were then treated with threefold serial dilutions of compounds starting at 500 µM and incubated for 24 h. DMSO was included as a negative control for normalization. Following treatment, cells were incubated with PrestoBlue reagent (ThermoFisher Scientific) for 1 h at 37°C, and fluorescence was measured using a PerkinElmer Victor X5 multilabel plate reader. The CC50 values were determined by normalized non-linear regression with a variable slope model in Prism (GraphPad).

[5] = test system: EILV trans-replicase (P1234); assay: Trans-replicase assay, EILV; assay type: cell-based, Eilat virus; conditions: 100 µM, U-2 OS, 20 h
Method: as §1

U-2 OS cells [6] = assay: Cytotoxicity assay (PrestoBlue, 24 h) in U-2 OS cells; assay type: cell-based, Human
RSV A2-L19F = assay: microbe, parasite or virus in culture; assay type: cell-based; conditions: Hep-2 cells; read-out: Antiviral potency (EC50 [µM]) RSV
[7] = target: VEEV trans-replicase (P1234) (Venezuelan equine encephalitis virus, UniProt P36328); assay type: cell-based
VSV-nLuc = assay: microbe, parasite or virus in culture; assay type: cell-based; conditions: read-out: Antiviral potency (EC50 [µM]) VSV
[8] = target: T3, BFV trans-replicase (P1234) (Barmah forest virus, UniProt P87515); assay: Trans-replicase assay, BFV; assay type: cell-based; conditions: 100 µM, U-2 OS, 20 h
T3 construct: expression of the P1234 polyprotein drives replication of a reporter RNA template; expressed in transfected cells; host or cells: U-2 OS
Method: as §1

MAYV = assay: microbe, parasite or virus in culture; assay type: cell-based, Mayaro virus; conditions: read-out: EC50 virus production, MAYV
SARS-CoV-2-nLuc = assay: microbe, parasite or virus in culture; assay type: cell-based; conditions: VeroE6-TMPRSS2 cells; read-out: Antiviral potency (EC50 [µM]) SARS-CoV-2
SFV = assay: microbe, parasite or virus in culture; assay type: cell-based, Semliki Forest virus; conditions: read-out: EC50 virus production, SFV
VEEV-TC83-nLuc = assay: microbe, parasite or virus in culture; assay type: cell-based; conditions: read-out: Antiviral potency (EC50 [µM]) VEEV
CHIKV-nLuc [9] = assay type: cell-based, Chikungunya virus; conditions: 20 µM, U-2 OS, reporter read at 24 h
HPIV3-nLuc = assay: microbe, parasite or virus in culture; assay type: cell-based; conditions: VeroE6 cells; read-out: Antiviral potency (EC50 [µM]) HPIV3
[10] = target: T4, ONNV trans-replicase (P1234) (O'nyong-nyong virus, UniProt P13886); assay: Trans-replicase assay, ONNV; assay type: cell-based; conditions: 100 µM, U-2 OS, 20 h
T4 construct: expression of the P1234 polyprotein drives replication of a reporter RNA template; expressed in transfected cells; host or cells: U-2 OS
Method: as §1

[11] = test system: CHIKV-nLuc (181/25 strain); assay: microbe, parasite or virus in culture; assay type: cell-based, Chikungunya virus; conditions: 5 µM, 384-well format, read 20 h after infection
SINV-GLuc = assay: microbe, parasite or virus in culture; assay type: cell-based; conditions: VeroE6 cells; read-out: Antiviral potency (EC50 [µM]) SINV
CHIKV-nLuc [12] = assay: microbe, parasite or virus in culture; assay type: cell-based, Chikungunya virus; conditions: MOI 0.1 FFU/cell, 24 hpi, in-house synthesized compound; read-out: EC50 CHIKV-nLuc, U-2 OS
U-2 OS cells [13] = test system: U-2 OS cells
CHIKV-nLuc [14] = assay: microbe, parasite or virus in culture; assay type: cell-based, Chikungunya virus; conditions: MOI 0.1 FFU/cell, 24 hpi, in-house synthesized compound; read-out: EC50 CHIKV-nLuc, NHDF
ONNV = assay: organism not typed; assay type: cell-based, o'nyong-nyong virus; conditions: read-out: EC50 virus production, ONNV
CHIKV 181/25 = assay: Virus yield dose-response in U-2 OS cells, CHIKV; assay type: cell-based, Chikungunya virus
RRV = assay: microbe, parasite or virus in culture; assay type: cell-based, Ross River virus; conditions: read-out: EC50 virus production, RRV
[15] = target: T5, CHIKV trans-replicase (P1234) (Chikungunya virus, UniProt Q8JUX6); assay: Trans-replicase assay, CHIKV; assay type: cell-based; conditions: 100 µM, U-2 OS, 20 h
T5 construct: expression of the P1234 polyprotein drives replication of a reporter RNA template; expressed in transfected cells; host or cells: U-2 OS
Method: as §1

[16] = target: T6, SINV trans-replicase (P1234) (Sindbis virus, UniProt P03317); assay: Trans-replicase assay, SINV; assay type: cell-based; conditions: 100 µM, U-2 OS, 20 h
T6 construct: expression of the P1234 polyprotein drives replication of a reporter RNA template; expressed in transfected cells; host or cells: U-2 OS
Method: as §1

CHIKV replicon = conditions: read-out: Antiviral potency (EC50 [µM]) CHKV replicon; replicon cells

Sequence of WEEV trans-replicase (P1234) (P13896 whole entry): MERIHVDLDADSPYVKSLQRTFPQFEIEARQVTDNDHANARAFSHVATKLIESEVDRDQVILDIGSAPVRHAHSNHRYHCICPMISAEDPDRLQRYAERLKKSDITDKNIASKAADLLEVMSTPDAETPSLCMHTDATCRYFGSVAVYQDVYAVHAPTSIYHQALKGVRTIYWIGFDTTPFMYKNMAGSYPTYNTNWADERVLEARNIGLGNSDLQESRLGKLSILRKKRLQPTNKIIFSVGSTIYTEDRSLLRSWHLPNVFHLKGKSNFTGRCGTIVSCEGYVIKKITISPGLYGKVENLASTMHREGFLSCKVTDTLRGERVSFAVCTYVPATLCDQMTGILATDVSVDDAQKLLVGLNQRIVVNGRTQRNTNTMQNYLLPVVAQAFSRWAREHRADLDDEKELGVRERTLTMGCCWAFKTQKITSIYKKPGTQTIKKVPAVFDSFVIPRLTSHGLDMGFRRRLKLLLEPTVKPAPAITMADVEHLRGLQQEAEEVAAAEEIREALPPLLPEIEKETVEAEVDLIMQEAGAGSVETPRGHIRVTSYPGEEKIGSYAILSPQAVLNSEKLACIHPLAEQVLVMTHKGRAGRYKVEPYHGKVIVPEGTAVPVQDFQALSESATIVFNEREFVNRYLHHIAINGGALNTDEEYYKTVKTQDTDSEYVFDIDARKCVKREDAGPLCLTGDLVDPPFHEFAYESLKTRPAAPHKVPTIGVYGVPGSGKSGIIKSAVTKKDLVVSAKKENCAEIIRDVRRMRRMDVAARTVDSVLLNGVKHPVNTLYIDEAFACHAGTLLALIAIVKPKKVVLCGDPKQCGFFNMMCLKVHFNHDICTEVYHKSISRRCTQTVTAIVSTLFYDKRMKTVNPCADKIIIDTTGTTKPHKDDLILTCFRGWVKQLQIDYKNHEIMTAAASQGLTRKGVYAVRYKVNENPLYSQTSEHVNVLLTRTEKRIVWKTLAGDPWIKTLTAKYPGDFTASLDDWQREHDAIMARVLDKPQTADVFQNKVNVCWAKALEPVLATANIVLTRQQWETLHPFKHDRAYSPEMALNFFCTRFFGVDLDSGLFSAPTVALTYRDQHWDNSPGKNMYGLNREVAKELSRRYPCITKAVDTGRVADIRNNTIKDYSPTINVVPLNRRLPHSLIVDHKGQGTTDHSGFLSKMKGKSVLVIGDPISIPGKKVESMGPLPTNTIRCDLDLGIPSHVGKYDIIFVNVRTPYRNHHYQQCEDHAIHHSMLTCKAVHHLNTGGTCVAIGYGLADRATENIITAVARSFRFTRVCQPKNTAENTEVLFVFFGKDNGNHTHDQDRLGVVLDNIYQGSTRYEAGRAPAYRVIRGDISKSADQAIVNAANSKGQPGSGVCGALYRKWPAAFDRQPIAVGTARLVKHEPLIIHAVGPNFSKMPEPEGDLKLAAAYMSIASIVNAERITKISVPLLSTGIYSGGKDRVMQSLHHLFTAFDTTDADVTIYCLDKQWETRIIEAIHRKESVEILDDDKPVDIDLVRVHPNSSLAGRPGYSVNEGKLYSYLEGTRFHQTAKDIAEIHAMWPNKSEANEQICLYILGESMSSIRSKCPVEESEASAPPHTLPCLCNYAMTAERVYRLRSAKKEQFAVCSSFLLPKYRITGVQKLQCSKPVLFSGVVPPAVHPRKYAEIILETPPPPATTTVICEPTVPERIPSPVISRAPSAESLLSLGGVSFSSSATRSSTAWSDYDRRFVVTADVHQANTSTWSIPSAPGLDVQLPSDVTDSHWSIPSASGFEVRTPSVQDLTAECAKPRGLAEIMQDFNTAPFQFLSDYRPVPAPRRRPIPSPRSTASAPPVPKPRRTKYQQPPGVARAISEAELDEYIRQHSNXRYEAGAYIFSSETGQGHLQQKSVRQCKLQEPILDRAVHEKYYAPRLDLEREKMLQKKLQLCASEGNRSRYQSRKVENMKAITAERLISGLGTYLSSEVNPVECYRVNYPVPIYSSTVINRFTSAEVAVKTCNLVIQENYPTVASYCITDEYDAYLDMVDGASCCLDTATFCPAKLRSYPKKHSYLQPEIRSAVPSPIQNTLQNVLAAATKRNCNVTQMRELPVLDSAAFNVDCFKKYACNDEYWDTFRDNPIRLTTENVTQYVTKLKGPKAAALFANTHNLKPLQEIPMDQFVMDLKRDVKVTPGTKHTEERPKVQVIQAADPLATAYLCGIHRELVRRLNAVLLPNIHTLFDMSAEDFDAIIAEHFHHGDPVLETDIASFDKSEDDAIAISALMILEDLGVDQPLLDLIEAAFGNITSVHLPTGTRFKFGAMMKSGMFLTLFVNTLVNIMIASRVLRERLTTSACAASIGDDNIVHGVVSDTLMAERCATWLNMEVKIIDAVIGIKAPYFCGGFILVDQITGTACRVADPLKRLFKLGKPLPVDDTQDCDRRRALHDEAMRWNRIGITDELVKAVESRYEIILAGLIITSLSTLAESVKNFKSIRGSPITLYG
Sequence of WEEV trans-replicase (P1234) (P13896 1-533 partner limits assumed): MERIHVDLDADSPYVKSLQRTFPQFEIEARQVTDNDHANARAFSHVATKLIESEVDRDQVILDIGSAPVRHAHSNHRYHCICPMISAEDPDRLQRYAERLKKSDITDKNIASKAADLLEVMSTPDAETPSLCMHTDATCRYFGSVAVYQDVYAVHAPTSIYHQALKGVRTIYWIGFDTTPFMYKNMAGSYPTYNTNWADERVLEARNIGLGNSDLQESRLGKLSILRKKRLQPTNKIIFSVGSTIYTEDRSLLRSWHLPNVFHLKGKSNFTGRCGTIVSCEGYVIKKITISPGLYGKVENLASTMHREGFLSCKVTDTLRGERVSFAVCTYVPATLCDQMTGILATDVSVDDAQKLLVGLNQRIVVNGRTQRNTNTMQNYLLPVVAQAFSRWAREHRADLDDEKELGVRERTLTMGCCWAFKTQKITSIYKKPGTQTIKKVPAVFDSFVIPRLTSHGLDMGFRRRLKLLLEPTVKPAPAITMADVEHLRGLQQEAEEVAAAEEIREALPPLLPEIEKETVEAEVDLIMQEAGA
Sequence of WEEV trans-replicase (P1234) (P13896 534-1327 partner limits assumed): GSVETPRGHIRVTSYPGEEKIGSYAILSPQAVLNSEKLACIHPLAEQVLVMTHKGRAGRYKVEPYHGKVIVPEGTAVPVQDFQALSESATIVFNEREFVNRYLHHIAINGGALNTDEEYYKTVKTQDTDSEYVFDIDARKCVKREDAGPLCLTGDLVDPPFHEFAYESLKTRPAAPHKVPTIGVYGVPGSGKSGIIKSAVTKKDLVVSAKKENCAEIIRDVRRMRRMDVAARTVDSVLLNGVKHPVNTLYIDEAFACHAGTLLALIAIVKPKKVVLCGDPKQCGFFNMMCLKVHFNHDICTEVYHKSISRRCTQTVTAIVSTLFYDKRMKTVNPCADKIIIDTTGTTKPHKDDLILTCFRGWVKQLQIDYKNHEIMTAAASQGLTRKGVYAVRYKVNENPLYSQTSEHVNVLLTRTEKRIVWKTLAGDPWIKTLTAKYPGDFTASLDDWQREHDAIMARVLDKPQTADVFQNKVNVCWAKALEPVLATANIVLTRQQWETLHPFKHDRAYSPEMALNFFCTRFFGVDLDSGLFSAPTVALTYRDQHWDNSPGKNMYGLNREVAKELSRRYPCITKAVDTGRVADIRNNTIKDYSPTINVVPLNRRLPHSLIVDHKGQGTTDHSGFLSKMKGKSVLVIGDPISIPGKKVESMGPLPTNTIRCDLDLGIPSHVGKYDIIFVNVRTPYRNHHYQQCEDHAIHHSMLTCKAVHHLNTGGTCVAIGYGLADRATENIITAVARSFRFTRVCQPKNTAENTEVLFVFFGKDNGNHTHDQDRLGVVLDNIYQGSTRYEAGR

For “N-[2-(4-fluorophenyl)ethyl]-1,5-dimethyl-N-[(2-methylpyrazol-3-yl)methyl]pyrazole-4-sulfonamide [GAP-1146924]”, the “Effect on RNA replication (GLuc) in trans-replicase assay, EEEV” value [1] was “some inhibition”, the “Effect on RNA replication (GLuc) in trans-replicase assay, WEEV” value [2] was “some inhibition” and the EC50 (SINV) was > 100 µM. For the same substance, the “Effect on RNA replication (GLuc) in trans-replicase assay, SFV” value [3] was “some GAP-1146924 inhibition”, the “Effect on RNA replication (GLuc) in trans-replicase assay, RRV” value [4] was “some GAP-1146924 inhibition” and the CC50 (NHDF cells) was > 500 µM. For the same substance, the “Effect on RNA replication (GLuc) in trans-replicase assay, EILV” value [5] was “some inhibition”, the CC50 (U-2 OS cells [6]) was > 500 µM and the EC50 (RSV A2-L19F) was > 10 µM. The “Effect on RNA replication (GLuc) in trans-replicase assay, VEEV” value [7] was “some inhibition”, the EC50 (VSV-nLuc) was > 100 µM and the “Effect on RNA replication (GLuc) in trans-replicase assay, BFV” value [8] was “inhibited RNA replication”. The EC50 (MAYV) was 13 ± 5.14 µM, the EC50 (SARS-CoV-2-nLuc) was > 100 µM and the EC50 (SFV) was > 100 µM. For the same substance, the CC50 (VeroE6 cells) was > 100 µM, the EC50 (VEEV-TC83-nLuc) was 35.2 µM and the “Time-of-addition profile (stage of replication targeted)” value (CHIKV-nLuc [9]) was “act on a stage after viral entry”. For the same substance, the EC50 (HPIV3-nLuc) was > 100 µM, the “Effect on RNA replication (GLuc) in trans-replicase assay, ONNV” value [10] was “inhibited RNA replication” and the “Normalized percent inhibition in primary screen” value [11] was 91.8%. The EC50 (SINV-GLuc) was > 100 µM, the EC50 (CHIKV-nLuc [12]) was 23.4 ± 2.44 µM and the CC50 (U-2 OS cells [13]) was > 100 µM. The EC50 (CHIKV-nLuc [14]) was 9.33 µM, the EC50 (ONNV) was 6.09 ± 2.2 µM and the EC50 (CHIKV 181/25; MOI 0.1, supernatant 24 hpi titered by FFA (Fig. 5), read-out: EC50 virus production, CHIKV) was 16.5 ± 3.99 µM. The EC50 (CHIKV 181/25; resistance study (Fig. 7), read-out: EC50 virus production, CHIKV WT) was 19.7 ± 7.78 µM, the EC50 (RRV) was > 100 µM and the “Effect on RNA replication (GLuc) in trans-replicase assay, CHIKV” value [15] was “inhibited RNA replication”. For the same substance, the “Effect on RNA replication (GLuc) in trans-replicase assay, SINV” value [16] was “some GAP-1146924 inhibition” and the EC50 (CHIKV replicon) was 9.2 µM.
